Test results as given in article PMC12363342, “Investigating the N-terminal linker histone H1 subtypes as substrates for JmjC lysine demethylases” (RSC Chemical Biology, 2025).
Square brackets hold non-standard residues; d marks the D form. Ends that are not written are not given here. Lys(Me3) = C[N+](C)(C)CCCC[C@H](N)C(=O)O

Tests used:
Type in all cases: biochemical, human
KDM4A = assay: LC-MS demethylation activity assay, KDM4A; settings: 10 μM FAS, 100 μM LAA, 20 μM 2OG, room temperature; for substrate conversion (demethylation) by KDM4A: 2 μM KDM4A, 10 μM peptide, HEPES pH 7.5, 2 h; for KDM4A demethylation activity, T: 2 μM KDM, 10 μM H1/H3 peptide, 50 mM HEPES pH 7.5, 2 h, T (tri-) initial methylation state
Procedure, shortened: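 His6-tagged recombinant catalytic domains (2.0 μM) were used: KDM4A M1–L359, KDM4D M1–L359 and KDM3C L2157–L2500 from E. coli, and KDM5D M1–D775 from Sf9. Each acted on 10 μM H1 peptide in 50 mM HEPES pH 7.5 with 10 μM Fe(II), 100 μM ascorbate and 20 μM 2OG for 2 h at room temperature. Reactions were formic acid-quenched and analysed by LC-MS.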

KDM3A = assay: LC-MS demethylation activity assay, KDM3A; settings: 2 μM KDM, 10 μM H1/H3 peptide, 10 μM FAS, 100 μM LAA, 20 μM 2OG, 50 mM HEPES pH 7.5, 2 h, room temperature, T (tri-) initial methylation state
Procedure, shortened: (§1)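 H1 isoform peptides (10 μM) were incubated 2 h at room temperature with 2 μM recombinant N-terminally His6-tagged catalytic domains in 50 mM HEPES pH 7.5 containing FAS (10 μM), ascorbate (100 μM) and 2OG (20 μM). Reactions were quenched with formic acid (1% final), and demethylation was analysed by LC-MS (Q-TOF).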

KDM3B = assay: LC-MS demethylation activity assay, KDM3B; settings: 2 μM KDM, 10 μM H1/H3 peptide, 10 μM FAS, 100 μM LAA, 20 μM 2OG, 50 mM HEPES pH 7.5, 2 h, room temperature, T (tri-) initial methylation state
Procedure, shortened: as §1

Substance | substrate conversion (demethylation) by KDM4A (KDM4A) [%] | KDM4A demethylation activity, T (KDM4A) | KDM3A demethylation activity, T (KDM3A) | KDM3B demethylation activity, T (KDM3B)
KKKAAK[Lys(Me3)]AGGTPRKA [Peptide H1.2K26me3, 15-mer linker histone H1.2 residues 20-34 peptide, tri-methylated K26] | ~51 | ● [yellow] (yellow dots indicate moderate demethylation (<50% conversion)) | ● [red] | ● [red]
KKKAA[Lys(Me3)]KAGGTPRKA [Peptide H1.2K25me3, 15-mer linker histone H1.2 residues 20-34 peptide, tri-methylated K25] | ~45 | ● [green] (green dots indicate good demethylation (>50% conversion)) | ● [red] | ● [red]
KKKAR[Lys(Me3)]SAGAAKRKA [Peptide H1.4K25me3, 15-mer linker histone H1.4 residues 20-34 peptide, tri-methylated K25] | ~87 | ● [green] (green dots indicate good demethylation (>50% conversion)) | ● [red] | ● [red]
KKKATK[Lys(Me3)]AAGAGAAK [Peptide H1.5K26me3, 15-mer linker histone H1.5 residues 20-34 peptide, tri-methylated K26] | < 10 | ● [green] (green dots indicate good demethylation (>50% conversion)) | ● [red] | ● [red]
KKKA[Lys(Me3)]KAGATAGKRK [Peptide H1.3K24me3, 15-mer linker histone H1.3 residues 20-34 peptide, tri-methylated K24] | ~36 | ● [green] (green dots indicate good demethylation (>50% conversion)) | ● [red] | ● [red]
